{
  "source": "patent US8691576B2",
  "about": "“Regeneration and mass propagation of Jatropha curcas through somatic embryogenesis” (Joil (S) Pte Ltd., priority 2008, dated 2014)",
  "format_in_all_cases": "cell-based",
  "key": {"[1]": {"system": "Jatropha curcas calli from zygotic embryo explants", "experiment": "Type II somatic embryo (TIISE) formation after shifting calli to hormone-free DGA medium", "conditions": "then DGA medium 6 weeks", "method": "Yellowish or white calli were observed on the explants from 3rd week if subcultured in the same medium. Extensively tested variables for induction of somatic embryogenesis were media of numerous compositions. Combinations of MS salt, Gamborg B5 salts, MS vitamins, Gamborg B5 vitamins; presence or absence of NH4NO3; amount of KNO3 (1.9-3.8 g/l); organic nitrogen source, e.g., free amino acids, casein hydrolysate; trace amount of hormones, e.g., kinetin (0-1 mg/l), benzyl adenine (0-1 mg/l); choice of carbon sources, e.g., glucose, sucrose and maltose; and activated carbon (5 g/l). In a large number of media, the calli died within 1-2 weeks when shifted into a new medium. […] An example of the medium is DGA medium in which 1 g/l glutamine and 0.5 g/l asparagines was supplemented. A cluster of somatic embryos of various stages emerged around the 10th day after the medium shift to DGA (FIG. 2).\nSomatic embryos formed in DGA medium underwent multiplication and maturation simultaneously. We called them Type II Somatic Embryos (TIISE). TIISEs were preferentially formed on explants previously cultured in media containing higher concentration of 2,4-D, for example, 2-5 mg/l during the first induction culture (Table 1)."}, "[2]": {"system": "Jatropha curcas immature zygotic embryo and endosperm explants", "experiment": "Effect of 2,4-D concentration and zygotic embryo size on somatic embryo and calli formation", "design": "key to Explant Development Root Length / Explant Development Hypocotyl Length / Explant Development Calli Size: The relative size of explants and calli are indicated by the number of + symbols.; ++: The relative size of explants and calli are indicated by the number of + symbols.; +++: The relative size of explants and calli are indicated by the number of + symbols.; ++++: The relative size of explants and calli are indicated by the number of + symbols.; +++++: The relative size of explants and calli are indicated by the number of + symbols", "conditions": "end of 3rd week", "method": "Developing fruits were surfaced-sterilized and dissected to yield 200 immature zygotic embryos that were shorter than 1.5 cm in length. The embryos were separated into two groups, “<0.5 cm” and “0.5-1.5 cm”. The endosperm and zygotic embryo explants were cultured on solid media with various concentration of 2,4-D. On the 5th day, the embryos, which became greenish, enlarged and hardened, were removed from the endosperms and cut into small pieces of about 0.25 cm^2 each. The endosperm and embryo explants were cultured separately on the same media in the dark at 28° C. It was confirmed that most somatic embryos were produced on the endosperm explants where the embryos had been detached. It is apparent that, although 2,4-D was not essential for initiation of somatic embryos; […] concentration of it causes excessive expansion of explants."}, "[3]": {"system": "Jatropha curcas embryogenic calli", "experiment": "Embryogenic liquid suspension culture", "conditions": "liquid medium", "method": "FIGS. 5A-5D show embryogenic liquid suspension culture. About 50 mg embryogenic calli produced in solid DGA medium were inoculated in 20 ml modified DGA liquid media. Embryos larger than 2 mm were removed before inoculation. Subculture was done every two weeks. Photos were taken after 2 subcultures. FIG. 5A: 20 g/l sucrose, 1 g/l glutamine, 0.5 g/l asparagine, no 2,4-D. FIG. 5B: 20 g/l sucrose, 1 g/l glutamine, 0.5 g/l asparagine, 0.2 g/1 2,4-D. FIG. 5C: 30 g/l sucrose, 1 g/l glutamine, 0.5 g/l asparagine, 0.2 g/1 2,4-D. FIG. 5D: 20 g/l sucrose, 1 g/l glutamine, 0.5 g/l asparagine, 1 g/1 2,4-D. Arrow indicates the non-embryogenic ball-shaped calli. Scale bar represents 1 cm.\nLiquid cultures were performed in 65 mm plastic cylinder containers or 250 ml glass conical flasks that were placed in shakers set at 80 rpm, 28° C. constant temperature and 16-8 hours day-light cycles.\nEffects 2,4-D and carbon source on establishment of somatic embryogenic liquid suspension culture was investigated. […] At sucrose level ranging from 10-30 g/l, continued culture lead to maturation of the somatic embryo with no new initiation of secondary embryos (FIG. 5A). The somatic embryos thus produced share good synchrony and are excellent materials for re-induction of TIISEs (Refer to Example 13). […] The suspension cultures were stable for months if large embryos were removed. Further, sucrose concentration needs to be reduced below about 20 g/l (compare FIGS. 5B and 5C)."}},
  "data": [
    {"smiles": "O=C(O)COc1ccc(Cl)cc1Cl", "note": "[2,4-D, 2,4-dichlorophenoxyacetic acid]", "values": [
      {"measurement": "TIISE (%)", "setting": "[1]; 2,4-D 0.1 mg/L 4 weeks", "value": 11, "unit": "%"},
      {"measurement": "TIISE Count", "setting": "[1]; 2,4-D 0.1 mg/L 4 weeks, 19 explants", "value": 2},
      {"measurement": "TIISE (%)", "setting": "[1]; 2,4-D 0.2 mg/L 4 weeks", "value": 4, "unit": "%"},
      {"measurement": "TIISE Count", "setting": "[1]; 2,4-D 0.2 mg/L 4 weeks, 28 explants", "value": 1},
      {"measurement": "TIISE (%)", "setting": "[1]; 2,4-D 0.5 mg/L 4 weeks", "value": 19, "unit": "%"},
      {"measurement": "TIISE Count", "setting": "[1]; 2,4-D 0.5 mg/L 4 weeks, 16 explants", "value": 3},
      {"measurement": "TIISE (%)", "setting": "[1]; 2,4-D 1 mg/L 4 weeks", "value": 0, "unit": "%"},
      {"measurement": "TIISE Count", "setting": "[1]; 2,4-D 1 mg/L 4 weeks, 19 explants", "value": 0},
      {"measurement": "TIISE (%)", "setting": "[1]; 2,4-D 2 mg/L 4 weeks", "value": 36, "unit": "%"},
      {"measurement": "TIISE Count", "setting": "[1]; 2,4-D 2 mg/L 4 weeks, 25 explants", "value": 9},
      {"measurement": "TIISE (%)", "setting": "[1]; 2,4-D 5 mg/L 4 weeks", "value": 39, "unit": "%"},
      {"measurement": "TIISE Count", "setting": "[1]; 2,4-D 5 mg/L 4 weeks, 23 explants", "value": 9},
      {"measurement": "TIISE (%)", "setting": "[1]; 2,4-D 10 mg/L 4 weeks", "value": 24, "unit": "%"},
      {"measurement": "TIISE Count", "setting": "[1]; 2,4-D 10 mg/L 4 weeks, 21 explants", "value": 5},
      {"measurement": "TIISE (%)", "setting": "[1]; 2,4-D 20 mg/L 4 weeks", "value": 23, "unit": "%"},
      {"measurement": "TIISE Count", "setting": "[1]; 2,4-D 20 mg/L 4 weeks, 13 explants", "value": 3},
      {"measurement": "Explant Development Calli Size", "setting": "[2]; 2,4-D 0.1 mg/L", "value": "++"},
      {"measurement": "Explant Development Hypocotyl Length", "setting": "[2]; 2,4-D 0.1 mg/L", "value": "+++++"},
      {"measurement": "Explant Development Root Length", "setting": "[2]; 2,4-D 0.1 mg/L", "value": "++++"},
      {"measurement": "Explant Development Calli Size", "setting": "[2]; 2,4-D 0.2 mg/L", "value": "++"},
      {"measurement": "Explant Development Hypocotyl Length", "setting": "[2]; 2,4-D 0.2 mg/L", "value": "++++"},
      {"measurement": "Explant Development Root Length", "setting": "[2]; 2,4-D 0.2 mg/L", "value": "+++"},
      {"measurement": "Explant Development Calli Size", "setting": "[2]; 2,4-D 0.5 mg/L", "value": "+++"},
      {"measurement": "Explant Development Hypocotyl Length", "setting": "[2]; 2,4-D 0.5 mg/L", "value": "+++"},
      {"measurement": "Explant Development Root Length", "setting": "[2]; 2,4-D 0.5 mg/L", "value": "++"},
      {"measurement": "Explant Development Calli Size", "setting": "[2]; 2,4-D 1 mg/L", "value": "++++"},
      {"measurement": "Explant Development Hypocotyl Length", "setting": "[2]; 2,4-D 1 mg/L", "value": "+++"},
      {"measurement": "Explant Development Root Length", "setting": "[2]; 2,4-D 1 mg/L", "value": "++"},
      {"measurement": "Explant Development Calli Size", "setting": "[2]; 2,4-D 2 mg/L", "value": "++++"},
      {"measurement": "Explant Development Hypocotyl Length", "setting": "[2]; 2,4-D 2 mg/L", "value": "+"},
      {"measurement": "Explant Development Root Length", "setting": "[2]; 2,4-D 2 mg/L", "value": "+"},
      {"measurement": "Explant Development Calli Size", "setting": "[2]; 2,4-D 5 mg/L", "value": "+++"},
      {"measurement": "Explant Development Hypocotyl Length", "setting": "[2]; 2,4-D 5 mg/L", "value": "+"},
      {"measurement": "Explant Development Root Length", "setting": "[2]; 2,4-D 5 mg/L", "value": "+"},
      {"measurement": "Explant Development Calli Size", "setting": "[2]; 2,4-D 10 mg/L", "value": "+++"},
      {"measurement": "Explant Development Hypocotyl Length", "setting": "[2]; 2,4-D 10 mg/L", "value": "+"},
      {"measurement": "Explant Development Root Length", "setting": "[2]; 2,4-D 10 mg/L", "value": "+"},
      {"measurement": "Explant Development Calli Size", "setting": "[2]; 2,4-D 15 mg/L", "value": "++"},
      {"measurement": "Explant Development Hypocotyl Length", "setting": "[2]; 2,4-D 15 mg/L", "value": "+"},
      {"measurement": "Explant Development Root Length", "setting": "[2]; 2,4-D 15 mg/L", "value": "+"},
      {"measurement": "Explant Development Calli Size", "setting": "[2]; 2,4-D 20 mg/L", "value": "+"},
      {"measurement": "Explant Development Hypocotyl Length", "setting": "[2]; 2,4-D 20 mg/L", "value": "+"},
      {"measurement": "Explant Development Root Length", "setting": "[2]; 2,4-D 20 mg/L", "value": "+"},
      {"measurement": "Calli formation", "setting": "[2]", "value": "more favorable at about 0.5-10 mg/l"},
      {"measurement": "maturation of somatic embryos", "setting": "[3]; 2,4-D 0.1-0.5 g/l", "value": "significantly inhibited maturation of somatic embryos"},
      {"measurement": "calli multiplication and embryogenicity", "setting": "[3]; 2,4-D higher than 0.5 g/l", "value": "calli multiplication and embryogenicity was poor"}
    ]}
  ]
}
